For test [1], the species on record is Bos taurus. As to the kind of experiment: Binding affinity to bovine trypsin assessed as ligand-target residence time at 1H-4/5 resonance by (1)H relaxation dispersion NMR spectroscopy.
Test [2] is filed under the species Bos taurus. The experiment in a line: Binding affinity to bovine trypsin assessed as ligand-target residence time at 1H-9 resonance by (1)H relaxation dispersion NMR spectroscopy.
For another test, the system named is Fusobacterium nucleatum. The experiment in a line: Binding affinity to Fusobacterium nucleatum class I aptamer assessed as ligand-target residence time at 1H-8 resonance by (1)H relaxation dispersion NMR spectroscopy.
Test [3] deals with Caldanaerobacter subterraneus subsp. tengcongensis. The experiment in a line: Binding affinity to Thermoanaerobacter tengcongensis class I aptamer assessed as ligand-target residence time at 1H-8 resonance by (1)H relaxation dispersion NMR spectroscopy.

Each structure is given as a SMILES string.

This note sets out measurements from ChEMBL document CHEMBL3862034, “Measurement of Ligand-Target Residence Times by 1H Relaxation Dispersion NMR Spectroscopy” (J Med Chem, 2016).

For the compound `Nc1ccc2cc3ccc(N)cc3nc2c1`, the figures for the TIME in the test filed under Bos taurus [1] and in the test listed under Bos taurus [2] were 5.28e-08 h and 5.56e-08 h, respectively.

With `NCc1c[nH]c2nc(N)[nH]c(=O)c12`, the TIME came out at 1.75e-07 h with Fusobacterium nucleatum and 6.39e-08 h in test [3].
